Measurements as given in article PMC11951083, “Highly Specific Miniaturized Fluorescent Monoacylglycerol Lipase Probes Enable Translational Research” (Journal of the American Chemical Society, 2025).
Read-outs that look alike come from different tables or passages of the source.

Legend:
[1] = biological target: T1, NanoLuc luciferase MAGL fusion protein (Homo sapiens, UniProt Q99685); assay: Cellular MAGL NanoBRET target engagement assay in live HEK293 cells; type: cell-based
T1 sequence (Q99685 1-303): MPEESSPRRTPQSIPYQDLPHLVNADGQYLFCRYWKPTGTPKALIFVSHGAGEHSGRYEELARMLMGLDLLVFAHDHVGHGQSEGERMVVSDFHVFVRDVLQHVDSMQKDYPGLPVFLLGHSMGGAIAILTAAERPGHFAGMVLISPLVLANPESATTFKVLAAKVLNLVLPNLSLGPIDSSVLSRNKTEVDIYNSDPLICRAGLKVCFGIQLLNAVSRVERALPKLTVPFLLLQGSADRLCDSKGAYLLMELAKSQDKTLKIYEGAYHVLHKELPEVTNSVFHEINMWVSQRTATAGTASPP
Protocol: This assay was performed as first described before.20
Compounds were profiled by a novel cellular MAGL NanoBRET™ Target Engagement assay, which measures the apparent affinity of test compounds by competitive displacement of a Roche -developed Tracer (WO2021058443, Example 2 121, or probe 4a, respectively), reversibly bound to a NanoLuc ® luciferase MAGL fusion protein in cells.
A HEK293A stable cell line expressing NanoLuc_MAGL was established at Roche and assigned as HEK293A_NanoLuc_MAGL clone #43. A fixed concentration of tracer is added to cells expressing the NanoLuc®_MAGL fusion protein to generate a BRET reporter complex. The introduction of competing compounds results in a dose -dependent decrease in NanoBRET™ energy transfer, which allows quantification of the intracellular affinity of the target protein for the test compound.
HEK293A_NanoLuc_MAGL clone #43 cells were cultured in DMEM (Gibco 31966) with 10% FBS and 800 ug/ml G418. The NanoBRET assay was performed by seeding 5000 cells/well in Costar low - volume white 384-well plate in assay buffer (1% FBS in HBSS), followed by adding the tracer (50 nM Example 21 or 100 nM 4a final concentration) and serial dilutions of test compounds. After 2 hours of incubation, Nanoluciferase substrates and extracellular inhibitors were added following the manufacturer's protocol (Promega, #N2520), and the NanoBRET signaling were quantified with the Paradigm (Molecular Devices).

ACE (h) = ACE (h) (Homo sapiens, UniProt P12821); assay: ACE (h); conditions: read-out: Inhibition ACE (h)
PDE4D2 (h) = PDE4D2 (h) (Homo sapiens, UniProt Q08499); assay: PDE4D2 (h); conditions: read-out: Inhibition PDE4D2 (h)
Abl kinase (h) = Abl kinase (h) (Homo sapiens, UniProt P00519); assay: Abl kinase (h); conditions: read-out: Inhibition Abl kinase (h)
beta2 (h) = beta2 (h) (Homo sapiens, UniProt P07550); assay: beta2 (h) (antagonist radioligand); conditions: read-out: Inhibition beta2 (h) (antagonist radioligand)
alpha2A (h) = biological target: T2, alpha2A (h) (Homo sapiens, UniProt P08913); assay: alpha2A (h) (antagonist radioligand); conditions: read-out: Inhibition alpha2A (h) (antagonist radioligand)
T2 sequence (P08913 1-465): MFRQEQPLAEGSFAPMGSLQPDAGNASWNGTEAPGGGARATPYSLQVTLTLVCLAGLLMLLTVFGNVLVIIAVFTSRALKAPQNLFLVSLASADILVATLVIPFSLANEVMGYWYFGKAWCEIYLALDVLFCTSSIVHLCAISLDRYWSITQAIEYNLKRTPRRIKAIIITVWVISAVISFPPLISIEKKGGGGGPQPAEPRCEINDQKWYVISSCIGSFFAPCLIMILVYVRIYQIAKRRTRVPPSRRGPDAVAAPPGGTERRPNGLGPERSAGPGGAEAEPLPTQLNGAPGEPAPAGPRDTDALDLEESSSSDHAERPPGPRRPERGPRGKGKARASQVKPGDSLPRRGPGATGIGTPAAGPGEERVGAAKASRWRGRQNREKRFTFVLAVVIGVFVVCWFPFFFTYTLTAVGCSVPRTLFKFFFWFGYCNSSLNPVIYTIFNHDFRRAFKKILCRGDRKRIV

MAGL = biological target: T3, MAGL (Homo sapiens, UniProt Q99685); assay: Surface plasmon resonance on human MAGL; type: binding; conditions: SPR
T3 sequence (Q99685 1-303): T1 sequence (Q99685 1-303)
Protocol: High throughput kinetic solubility measurement was performed as previously described in the […]
Surface plasmon resonance
EDC/NHS coupling with a final protein concentration of 0.06 mg/mL: 10 mM acetate pH 5.5 + 10µM RO7224999-000-001(reference binder). No quenching was applied after immobilization, but the surface was left with a running buffer for 1 h to hydrolyze and stabilize.
Running buffer: […], 150 mM NaCl, 0.05% P20, pH 7.4 + 50 µM EDTA, 1% DMSO Instrument:
Biacore T200 Sensorchip: CM5 Temperature: 18 °C concentration series: 5 concentration 3-fold dilution, top conc 0.5 µM, contact time 180s, dissociation time 300s before each compound a blank injection for double referencing was measured. Each compound was followed by 9 injections of Control, RO7283571 (60 s contact time, 200 s dissociation time, 10 µM) to validate surface activity and recovery to determine off rates.
Dissociation was trimmed for compounds showing faster kinetics to suppress the over-fitting of baseline drift. Data was fitted with 1:1 model with an added drift parameter to improve fit quality and to compensate from insufficient drift correction with the double referencing. Off rates (koff) were determined by recovery of reference binding. The signal was first blank subtracted, and the corrected chaser response was plotted versus time and fitted to an exponential decay model. […]

[2] = live HEK293 cells, read-out: IC50 nanoBRET

Chain of Abl kinase (h) (P00519 whole entry): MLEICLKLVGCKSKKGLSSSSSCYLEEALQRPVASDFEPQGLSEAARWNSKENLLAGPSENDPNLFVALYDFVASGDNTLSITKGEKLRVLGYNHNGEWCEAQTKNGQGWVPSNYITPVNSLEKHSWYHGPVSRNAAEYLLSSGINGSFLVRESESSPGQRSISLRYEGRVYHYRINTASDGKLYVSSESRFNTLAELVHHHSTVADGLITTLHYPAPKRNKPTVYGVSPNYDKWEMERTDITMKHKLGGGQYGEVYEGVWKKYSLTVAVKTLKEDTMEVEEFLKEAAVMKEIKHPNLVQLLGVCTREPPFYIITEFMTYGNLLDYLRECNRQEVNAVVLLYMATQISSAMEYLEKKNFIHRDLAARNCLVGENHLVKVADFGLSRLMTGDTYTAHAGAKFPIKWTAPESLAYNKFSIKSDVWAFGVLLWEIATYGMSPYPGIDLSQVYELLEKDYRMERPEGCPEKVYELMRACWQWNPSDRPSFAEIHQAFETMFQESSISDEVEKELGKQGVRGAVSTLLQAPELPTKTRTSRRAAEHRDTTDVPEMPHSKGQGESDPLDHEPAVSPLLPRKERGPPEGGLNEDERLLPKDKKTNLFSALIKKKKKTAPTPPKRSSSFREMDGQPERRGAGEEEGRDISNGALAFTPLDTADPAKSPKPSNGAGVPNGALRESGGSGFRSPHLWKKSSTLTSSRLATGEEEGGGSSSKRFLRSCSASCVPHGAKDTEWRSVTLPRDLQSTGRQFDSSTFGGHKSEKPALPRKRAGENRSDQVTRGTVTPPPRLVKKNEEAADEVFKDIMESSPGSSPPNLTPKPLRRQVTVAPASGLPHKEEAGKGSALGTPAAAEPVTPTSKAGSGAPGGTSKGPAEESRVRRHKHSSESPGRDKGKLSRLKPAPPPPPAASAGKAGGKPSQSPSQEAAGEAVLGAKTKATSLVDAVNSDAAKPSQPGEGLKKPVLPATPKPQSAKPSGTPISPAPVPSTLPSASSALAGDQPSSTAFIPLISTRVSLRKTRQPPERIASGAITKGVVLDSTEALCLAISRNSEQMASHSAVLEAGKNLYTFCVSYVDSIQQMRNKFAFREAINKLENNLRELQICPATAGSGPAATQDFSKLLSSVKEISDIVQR
Chain of PDE4D2 (h) (Q08499 303-809 limits assumed): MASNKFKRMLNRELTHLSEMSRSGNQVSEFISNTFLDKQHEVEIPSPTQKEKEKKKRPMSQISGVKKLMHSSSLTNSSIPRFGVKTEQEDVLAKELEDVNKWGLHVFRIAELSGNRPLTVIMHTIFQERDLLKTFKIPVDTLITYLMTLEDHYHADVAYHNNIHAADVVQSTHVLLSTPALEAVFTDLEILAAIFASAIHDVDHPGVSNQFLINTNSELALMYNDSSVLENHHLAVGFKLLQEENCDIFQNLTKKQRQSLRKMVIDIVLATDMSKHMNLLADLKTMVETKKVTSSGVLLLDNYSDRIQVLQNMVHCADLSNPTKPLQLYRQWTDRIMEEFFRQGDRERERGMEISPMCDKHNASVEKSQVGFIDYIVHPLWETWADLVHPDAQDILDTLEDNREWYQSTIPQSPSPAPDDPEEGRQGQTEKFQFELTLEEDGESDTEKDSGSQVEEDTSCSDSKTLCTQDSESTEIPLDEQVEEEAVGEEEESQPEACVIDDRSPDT
Chain of ACE (h) (P12821 30-1306): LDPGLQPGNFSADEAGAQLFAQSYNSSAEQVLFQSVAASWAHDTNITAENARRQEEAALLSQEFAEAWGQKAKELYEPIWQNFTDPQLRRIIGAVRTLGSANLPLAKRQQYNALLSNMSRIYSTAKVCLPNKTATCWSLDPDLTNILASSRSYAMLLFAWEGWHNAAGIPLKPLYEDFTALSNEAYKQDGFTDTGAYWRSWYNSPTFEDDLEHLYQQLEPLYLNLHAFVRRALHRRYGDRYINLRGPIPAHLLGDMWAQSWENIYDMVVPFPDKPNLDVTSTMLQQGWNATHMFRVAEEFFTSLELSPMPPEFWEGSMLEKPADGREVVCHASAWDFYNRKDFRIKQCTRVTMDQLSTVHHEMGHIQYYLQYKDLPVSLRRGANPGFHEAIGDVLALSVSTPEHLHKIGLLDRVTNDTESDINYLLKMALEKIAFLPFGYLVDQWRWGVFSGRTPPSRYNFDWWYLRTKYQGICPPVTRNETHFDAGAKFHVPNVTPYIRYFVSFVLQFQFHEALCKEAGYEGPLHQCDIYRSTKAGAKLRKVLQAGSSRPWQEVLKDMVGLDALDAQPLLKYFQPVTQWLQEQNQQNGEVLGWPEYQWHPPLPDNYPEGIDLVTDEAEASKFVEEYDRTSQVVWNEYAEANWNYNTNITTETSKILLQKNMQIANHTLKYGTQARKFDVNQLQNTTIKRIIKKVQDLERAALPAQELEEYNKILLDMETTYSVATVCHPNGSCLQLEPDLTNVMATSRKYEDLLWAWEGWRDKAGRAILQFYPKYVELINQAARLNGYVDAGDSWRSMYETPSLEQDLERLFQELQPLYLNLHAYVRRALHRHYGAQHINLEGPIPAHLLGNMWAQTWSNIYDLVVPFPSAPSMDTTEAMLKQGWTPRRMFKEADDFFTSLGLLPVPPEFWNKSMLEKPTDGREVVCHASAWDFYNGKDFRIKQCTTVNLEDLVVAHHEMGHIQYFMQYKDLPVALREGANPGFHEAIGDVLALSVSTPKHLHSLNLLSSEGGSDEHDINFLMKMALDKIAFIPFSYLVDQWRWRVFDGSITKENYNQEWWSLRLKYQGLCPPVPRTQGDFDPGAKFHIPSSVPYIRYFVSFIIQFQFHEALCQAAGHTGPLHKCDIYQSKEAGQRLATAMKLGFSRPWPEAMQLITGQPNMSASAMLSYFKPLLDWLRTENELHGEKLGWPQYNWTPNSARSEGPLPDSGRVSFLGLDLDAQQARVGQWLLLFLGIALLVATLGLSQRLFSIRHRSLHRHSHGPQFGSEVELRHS
Chain of beta2 (h) (P07550 whole entry): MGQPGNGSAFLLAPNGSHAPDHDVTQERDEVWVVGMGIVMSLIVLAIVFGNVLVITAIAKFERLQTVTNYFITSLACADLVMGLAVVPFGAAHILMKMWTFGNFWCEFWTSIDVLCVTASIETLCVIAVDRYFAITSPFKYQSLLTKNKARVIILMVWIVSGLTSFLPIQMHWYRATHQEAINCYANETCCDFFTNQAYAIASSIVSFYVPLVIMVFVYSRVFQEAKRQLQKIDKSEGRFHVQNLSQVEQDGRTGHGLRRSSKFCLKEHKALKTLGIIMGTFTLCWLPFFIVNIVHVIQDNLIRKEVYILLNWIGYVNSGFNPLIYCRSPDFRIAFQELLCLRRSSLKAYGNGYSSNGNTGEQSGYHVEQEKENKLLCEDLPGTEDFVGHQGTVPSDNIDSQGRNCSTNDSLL

For O=C(O[C@H](CO)C(F)(F)F)N1CC2(CC(CC3=C4C=CC=[N+]4[B-](F)(F)n4cccc43)C2)C1 [Compound 1], the IC50 [1, 2] was 0.276 µM, the inhibition at 10 µM (ACE (h)) was -10.4% and the inhibition at 10 µM (PDE4D2 (h)) was 18%. It also gave an inhibition at 10 µM (Abl kinase (h)) of -1.9%, an inhibition at 10 µM (beta2 (h)) of -3.1% and an inhibition at 10 µM (alpha2A (h)) of 11.7%.
Molecule O=C(OC(C(F)(F)F)C(F)(F)F)N1CC2(CC(CC3=C4C=CC=[N+]4[B-](F)(F)n4cccc43)C2)C1 [Compound 2] has an IC50 [1, 2] of 0.72 µM, an inhibition at 10 µM (ACE (h)) of -15.8% and an inhibition at 10 µM (PDE4D2 (h)) of -0.6%. For the same molecule, the inhibition at 10 µM (Abl kinase (h)) was -10.5%, the inhibition at 10 µM (beta2 (h)) was -0.6% and the inhibition at 10 µM (alpha2A (h)) was -2.2%.
In the case of O=C(OC(C(F)(F)F)C(F)(F)F)N1CC2(CC(CC3=C4C=CC(c5ccc[nH]5)=[N+]4[B-](F)(F)n4cccc43)C2)C1 [Compound 2a], the inhibition at 10 µM (ACE (h)) is reported as -4.4%, the inhibition at 10 µM (PDE4D2 (h)) is reported as -10.8% and the inhibition at 10 µM (Abl kinase (h)) is reported as -2.9%. The inhibition at 10 µM (beta2 (h)) was 1.8% and the inhibition at 10 µM (alpha2A (h)) was -0.9%.
Work on O=C1CO[C@H]2CCN(C(=O)N3CC4(CC(CC5=C6C=CC=[N+]6[B-](F)(F)n6cccc65)C4)C3)C[C@H]2N1 [Compound 4] yielded an IC50 [1, 2] of 0.196 µM and a residence time (MAGL) of 37 min.
In the case of O=C1CO[C@H]2CCN(C(=O)N3CC4(CC(CC5=C6C=CC(c7ccc[nH]7)=[N+]6[B-](F)(F)n6cccc65)C4)C3)C[C@H]2N1 [Compound 4a], the inhibition at 10 µM (ACE (h)) is reported as -21.2%, the inhibition at 10 µM (PDE4D2 (h)) is reported as 10.8% and the inhibition at 10 µM (Abl kinase (h)) is reported as -53.1%. The inhibition at 10 µM (beta2 (h)) was -6.2% and the inhibition at 10 µM (alpha2A (h)) was 7.4%.
Work on O=C(N1CC2(CC(CC3=C4C=CC=[N+]4[B-](F)(F)n4cccc43)C2)C1)N1CC2(CC(n3cnc(C4CC4)n3)C2)C1 [Compound 5] yielded an IC50 [1] of 0.085 µM, a residence time (MAGL) of 44 min and an inhibition at 10 µM (ACE (h)) of -21.1%. For the same molecule, the inhibition at 10 µM (PDE4D2 (h)) was 11.3%, the inhibition at 10 µM (Abl kinase (h)) was 25.6% and the inhibition at 10 µM (beta2 (h)) was 5.4%. It also gave an inhibition at 10 µM (alpha2A (h)) of -8.9%.
